# Assay results: US20200384072A1, “THERAPY OF IONIZING RADIATION-INDUCED DISORDERS” (SCK-CEN, priority 2019, published 2020)
# What was measured:
# [1] = test system: TIME cells; assay: DNA damage, gamma H2AX and TP53BP1 foci, TIME cells; format: cell-based, human; conditions: 100 μM TAT-Gap19, 0.1 and 5 Gy, 1 h p.i.
# Procedure: (§1) To detect DNA double strand breaks after IR, TICAE and TIME cells were seeded in Nunc™ Lab-Tek™ Chamber Slide (Thermo Fisher Scientific, Asse, Belgium) in 8 replicates, at seeding density of 50 000 cells/well. Two days later, cells reached 100% confluence. At 30 min before IR, a fresh medium was added to the cells with or without 100 μM TAT-Gap19. At 1 h post irradiation, cells were fixed with 2% PFA (Sigma-Aldrich Co. LCC, Diegem, Belgium) and permeabilized with 0.25% Triton X-100 (Sigma-Aldrich Co. LCC, Diegem, Belgium) in PBS. Cells were blocked for 1 h in 1% normal goat serum (Thermo Fisher Scientific, Asse, Belgium) in Tris-NaCl (Perkin Elmer, Brussels, Belgium). Thereafter, staining with 1/300 primary anti-gamma H2AX antibody (Merck-Millipore #05-636) and 1/1000 anti-TP53BP1 antibody (Novus Biologicals #NB100-304) was performed for 1 h at 37° C. After washing 3 times with PBS, secondary Alexa Fluor 488 and 568 antibodies (Life Technologies, Merelbeke, Belgium) were applied for 1 h at 37° C. Finally, the slides were mounted using ProLong Diamond Antifade Mountant with DAPI (Life Technologies, Merelbeke, Belgium), and cells were visualized with an Eclipse Ti automated inverted wide-field epifluorescence microscope (Nikon, Brussels, Belgium) equipped with a 20×Plan Fluor objective (NA 0.6) and an Andor Ixon EMCCD camera, controlled by the MS Elements software. […]
# [2] = test system: TICAE cells; assay: IGFBP-7 and GDF-15 multiplex-based assays, TICAE cells; format: cell-based, human; conditions: 7 d p.i.
# Procedure: TICAE and TIME cells were seeded in a 6-well plate at a density of 2.5×10^5 cells/well in 5 to 6 biological replicates. Two to three days later, cells reached 100% confluence. At 30 minutes before X-ray exposure, cells were refreshed with medium with or without 100 μM TAT-Gap19 (Genosphere Biotechnologies, Paris, France). At 24 h, 48 h, 72 h and 7 d after irradiation, the supernatant was collected. Medium was changed only for the 7 d time point experiment at the fourth day with fresh medium alone or with medium supplemented with 100 μM TAT-Gap19. For the simultaneous detection of multiple cytokines in the supernatants, the Magnetic Luminex® Assay (R&D systems, Minneapolis, […]) was used following manufacturer's instructions. Briefly, supernatants, standards and microparticles were incubated into a 96-well plate which was pre-coated with cytokine-specific antibodies. The immobilized antibodies were able to bind the cytokines of interest after 2 h incubation, then the plate was washed and incubation with a biotinylated antibody cocktail specific to the cytokines of interest was performed for 1 h. A second wash was performed to remove the unbound biotinylated antibodies. Further, a streptavidin-phycoerythrin conjugate was added to each well to bind to the biotinylated antibodies. After a final wash, the microparticles were resuspended in buffer and read using the Luminex® MAGPIX Analyzer (R&D systems, Minneapolis, […]).
# [3] = test system: TICAE cells; assay: DNA damage, gamma H2AX and TP53BP1 foci, TICAE cells; format: cell-based, human; conditions: 100 μM TAT-Gap19, 0.1 and 5 Gy, 1 h p.i.
# Procedure: as §1
# [4] = test system: TICAE cells; assay: Intracellular ROS, CM-H2DCFDA flow cytometry, TICAE cells; format: cell-based, human; conditions: 100 μM TAT-Gap19, 0.1 Gy, 45 min
# Procedure: TICAE and TIME cells were seeded in a 6-well plate at a density of 250000 cells/well. Three days later, cells reached 100% confluence. At 30 minutes before X-ray exposure (0.1 and 5 Gy), cells were washed with PBS to remove traces of the original medium. Afterwards, HMS supplemented with 25 mM HEPES (Sigma-Aldrich Co. LCC, Diegem, Belgium) and 10 μmol/L of the CM-H2DCFDA dye (Sigma-Aldrich Co. LCC, Diegem, Belgium) was added to the cells, and 100 μM TAT-Gap19 (Genosphere Biotechnologies, Paris, France) was added to block the Cx43 hemichannels. After irradiation, cells were washed with PBS and a 0.05% trypsin solution supplemented with 0.02% EDTA was used to detach the cells, followed by a 5 minute incubation time (37° C., 5% CO2). After trypsinization, the cells were transferred into a 1.5 mL tube and centrifuged for […] at 200 RCF. The supernatant was discard and the pellet was re-suspended in MSS without Ca2+ and Mg2+(Sigma-Aldrich Co. LCC, Diegem, Belgium). Finally, 1 μg/mL PI was added to each sample to exclude the dead cells. A positive control, 20 μmol/L tert-butyl hydroxyperoxide (tBHP), was added to the cells and incubated for 15 min. Intracellular ROS was assessed by analyzing the fluorescent signals using BD Accuri™ c6 Flow Cytometry (BD Biosciences, San Jose, Calif. USA). At least 10 000 events were measured. […]
# [5] = test system: mice liver; conditions: mice treated with thioacetamide to induce liver fibrosis; cited from earlier work
substance,measurement,setting,value
"TAT-Gap19: connexin mimetic peptide, amino-acids 128-136 of the CL of Cx43 (SEQ ID NO: 2), Gap19 linked to TAT sequence; Cx43 hemichannel inhibitor (YGRKKRRQRRRKQIEIKKFK)","gamma H2AX, TP53BP1 and colocalized foci (radiation-induced DNA damage)",[1],not affected
same,GDF-15,"[2]; 100 μM TAT-Gap19, 0, 0.1 and 5 Gy",significantly inhibited these responses in all treated conditions
same,IGFBP-7,"[2]; 100 μM TAT-Gap19, 0.1 Gy",acted in a significantly inhibitory way
same,IGFBP-7 (radiation-induced increase),"[2]; 100 μM TAT-Gap19, 5 Gy",not inhibited
same,"gamma H2AX, TP53BP1 and colocalized foci (radiation-induced DNA damage)",[3],not affected
same,intracellular ROS generation (flow cytometry),[4],significantly reduced intracellular ROS generation
same,SOD activity in liver,[5],increased SOD activity
